Key:
mice and rats [1] = experiment: oral tolerability / untoward effects in mice and rats; format: in vivo; settings: given orally to mice and rats at doses at which the compound exhibits anxiolytic activity
Excerpt: (§1) The compounds of the invention are essentially non-toxic and therapeutically useful doses.

mice and rats [2] = experiment: anxiolytic activity, oral, mice and rats; format: in vivo; settings: given orally to mice and rats
Excerpt: For example in mice in the black-white box test and in the rat social interaction model.
as §1

CCK-B receptor = target: T1, CCK-B receptor (Cavia porcellus, UniProt H0VZC5); experiment: CCK-B receptor binding (guinea pig cortex assay); settings: read-out: pKi CCK-B (converted)
T1 construct: CCK-B receptor (guinea pig cortex assay); from tissue; host or cells: guinea pig cortex
T1 sequence (H0VZC5 entry or part of it): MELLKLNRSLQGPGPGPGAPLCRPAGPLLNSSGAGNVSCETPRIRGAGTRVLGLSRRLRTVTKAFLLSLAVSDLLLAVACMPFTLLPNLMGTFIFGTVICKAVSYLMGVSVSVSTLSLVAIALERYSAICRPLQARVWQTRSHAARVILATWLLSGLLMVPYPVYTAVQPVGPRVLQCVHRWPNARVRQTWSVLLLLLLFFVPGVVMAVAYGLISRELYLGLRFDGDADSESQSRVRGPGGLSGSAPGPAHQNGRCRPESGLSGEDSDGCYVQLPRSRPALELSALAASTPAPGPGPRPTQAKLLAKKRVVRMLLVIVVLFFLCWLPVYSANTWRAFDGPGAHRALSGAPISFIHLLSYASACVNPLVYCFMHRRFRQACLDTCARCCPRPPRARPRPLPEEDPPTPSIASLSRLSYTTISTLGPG
Procedure: The greater affinity of the compounds of the invention for the CCK-B receptor over the CCK-A receptor has also been established using the CCK, receptor binding assays described by G Dal Fornos et al., J. Pharmcol. Exp & Ther. 261, 1056-1063, 1992.
The binding affinity of the compounds of the invention for the CCK-A receptor (Pancreas Assay) and CCK-B receptor (guinea pig cortex assay) was determined using the procedure of G Dal Forno et al J. Pharmacol. Exp & Ther. 261 - 1056-1063. The pKi values determined with respresentative compounds of invention were as follows: […]

| SMILES | untoward effects (mice and rats [1]) | anxiolytic activity (mice and rats [2]) | Ki (CCK-B receptor) [nM] |
| --- | --- | --- | --- |
| O=C(Nc1ccccc1)NC1C(=O)N(CC23CC4CC(CC(C4)C2)C3)c2ccccc2N(c2ccccc2)C1=O (single isomer, unassigned; (+)) [Example 45, (+)-N-[1-(Adamantanmethyl)-2,4-dioxo-5-phenyl-2,3,4,5-tetrahydro-1H-1,5-benzodiazepin-3-yl]-N'-phenylurea] | no untoward effects were obserbved | exhibits anxiolytic activity | – |
| O=C(Nc1ccccc1)NC1C(=O)N(CC2CC3C=CC2C3)c2ccccc2N(c2ccccc2)C1=O (stereo not drawn) [Example 31, N-[1-(Bicyclo[2.2.1]-5-heptene-2-ylmethyl)-2,4-dioxo-5-phenyl-2,3,4,5-tetrahydro-1H-1,5-benzodiazepin-3-yl]-N'-phenylurea] | – | – | 1.2 |

From US5637697A, “1,5-benzodiazepine derivatives and their use in medicine” (Glaxo SpA, priority 1992, dated 1997)
